Test results from US7998987B2, “Inhibitors of c-Met and uses thereof” (Vertex Pharmaceuticals Incorporated, priority 2005, dated 2011).

Each compound was assayed against c-Met (Homo sapiens, UniProt P08581) (assay: Ki determination for the inhibition of c-Met kinase activity (standard coupled enzyme system)). Conditions: coupled enzyme system, 200 μM ATP, 80 nM c-Met, 30° C.; read-out: c-Met Ki.
Assay type: biochemical
In short: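 Continuous coupled-enzyme (PK/LDH, NADH depletion) assay with 80 nM c-Met, 200 μM ATP and 10 μM polyGluTyr in 100 mM HEPES pH 7.5, 10 mM MgCl2, 1.5% DMSO at 30 °C.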

Chain of c-Met (P08581 25-1390): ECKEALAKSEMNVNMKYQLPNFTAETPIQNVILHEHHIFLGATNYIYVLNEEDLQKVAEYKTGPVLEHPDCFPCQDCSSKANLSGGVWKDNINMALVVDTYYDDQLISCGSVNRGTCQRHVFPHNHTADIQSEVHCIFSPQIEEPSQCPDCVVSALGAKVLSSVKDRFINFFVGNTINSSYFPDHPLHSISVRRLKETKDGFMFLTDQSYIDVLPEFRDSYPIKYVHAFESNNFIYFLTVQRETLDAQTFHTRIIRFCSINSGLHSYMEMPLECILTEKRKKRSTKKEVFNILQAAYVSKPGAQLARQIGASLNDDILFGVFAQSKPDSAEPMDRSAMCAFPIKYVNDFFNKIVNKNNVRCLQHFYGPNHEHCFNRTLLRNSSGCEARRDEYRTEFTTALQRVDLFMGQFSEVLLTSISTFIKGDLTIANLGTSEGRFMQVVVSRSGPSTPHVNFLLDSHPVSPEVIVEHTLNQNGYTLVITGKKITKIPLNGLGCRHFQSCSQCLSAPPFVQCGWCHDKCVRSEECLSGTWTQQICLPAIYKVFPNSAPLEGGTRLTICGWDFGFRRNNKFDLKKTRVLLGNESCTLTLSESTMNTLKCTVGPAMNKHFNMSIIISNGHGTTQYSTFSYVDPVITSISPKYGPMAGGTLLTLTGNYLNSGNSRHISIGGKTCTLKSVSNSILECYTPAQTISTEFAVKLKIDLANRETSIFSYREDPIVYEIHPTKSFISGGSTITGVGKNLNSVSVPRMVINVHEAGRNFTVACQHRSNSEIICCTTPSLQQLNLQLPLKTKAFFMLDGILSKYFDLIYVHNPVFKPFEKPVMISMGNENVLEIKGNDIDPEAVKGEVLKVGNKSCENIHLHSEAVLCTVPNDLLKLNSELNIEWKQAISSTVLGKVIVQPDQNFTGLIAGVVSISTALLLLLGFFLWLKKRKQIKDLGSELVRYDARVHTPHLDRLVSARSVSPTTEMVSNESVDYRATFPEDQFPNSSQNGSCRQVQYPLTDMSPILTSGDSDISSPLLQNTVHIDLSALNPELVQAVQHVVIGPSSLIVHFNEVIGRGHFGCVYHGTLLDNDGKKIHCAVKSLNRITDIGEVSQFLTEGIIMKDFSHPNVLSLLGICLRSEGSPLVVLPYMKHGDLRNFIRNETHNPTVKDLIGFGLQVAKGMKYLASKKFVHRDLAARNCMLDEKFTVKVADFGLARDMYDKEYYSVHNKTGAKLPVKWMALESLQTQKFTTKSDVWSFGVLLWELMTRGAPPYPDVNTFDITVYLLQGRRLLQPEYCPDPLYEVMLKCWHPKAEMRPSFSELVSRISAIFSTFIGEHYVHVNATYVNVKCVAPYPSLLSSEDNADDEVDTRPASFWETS

Compound	Ki [nM]
C[C@@H](Nc1ccc2nnc(Cc3ccc(O)cc3)n2n1)c1ccccc1 [Compound 313]	100 to 2000
Clc1cccc(Nc2ccc3nnc(CNc4ccc5[nH]ccc5c4)n3n2)c1 [Compound 465]	> 2000
O=C(O)c1cn(Cc2nnc3ccc(Nc4cccc(Cl)c4)nn23)c2ccccc12 [Compound 461]	> 2000
Nc1cc(F)ccc1OCc1nnc2ccc(Nc3cccc(Cl)c3)nn12 [Compound 432]	> 2000
CCc1nnc(Nc2ccc3nnc([C@@H](C)c4ccc(O)cc4)n3n2)s1 [Compound 515]	100 to 2000
Clc1cccc(Nc2ccc3nnc(COc4cccnc4Cl)n3n2)c1 [Compound 374]	100 to 2000
OCCc1cccc(Nc2ccc3nnc(Cc4ccc5c(c4)OCO5)n3n2)c1 [Compound 301]	100 to 2000
CC(=O)N[C@@H]1CCCC[C@H]1Nc1ccc2nnc([C@@H](C)c3ccc(O)cc3)n2n1 [Compound 450]	> 2000
Clc1cccc(Nc2ccc3nnc(COc4ccc5nonc5c4)n3n2)c1 [Compound 472]	> 2000
Clc1cccc(Nc2ccc3nnc(Cn4cnc5ccccc54)n3n2)c1 [Compound 485]	> 2000
Fc1cccc(OCc2nnc3ccc(Nc4cccc(Cl)c4)nn23)c1 [Compound 377]	> 2000
Oc1ccc(Cc2nnc3ccc(Nc4cc(Cl)ccc4Cl)nn23)cc1 [Compound 361]	< 100
Nc1ncccc1OCc1nnc2ccc(Nc3cccc(Cl)c3)nn12 [Compound 413]	< 100
CC(c1ccc(O)cc1)c1nnc2ccc(Nc3cccc(Cl)c3)nn12 (centres unmarked) [Compound 321]	< 100
COc1ccc(Cc2nnc3ccc(Nc4cccc(Cl)c4)nn23)c(Cl)c1 [Compound 440]	< 100
COc1cc(NCc2nnc3ccc(Nc4cccc(Cl)c4)nn23)cc(OC)c1OC [Compound 346]	> 2000
Clc1ccc(Cl)c(Nc2ccc3nnc(Cc4ccc5c(c4)OCO5)n3n2)c1 [Compound 363]	100 to 2000
O=c1[nH]ccc2c1ccn2Cc1nnc2ccc(Nc3cccc(Cl)c3)nn12 [Compound 428]	< 100
CC(C)C[C@H](NC(=O)OCc1ccccc1)C1=Nn2c(Cc3ccc(O)cc3)nnc2SC1 [Compound 532]	> 2000
COc1ccc(Cc2nnc3ccc(Nc4ccc(F)c(Cl)c4)nn23)cc1 [Compound 425]	< 100
C[C@@H](c1ccc(O)cc1)c1nnc2ccc(Nc3ccncn3)nn12 [Compound 498]	100 to 2000

Compound	Ki [nM]
Clc1cccc(Nc2ccc3nnc(CCc4ccncc4)n3n2)c1 [Compound 394]	> 2000
Cc1ccc(OCc2nnc3ccc(Nc4cccc(Cl)c4)nn23)cn1 [Compound 372]	> 2000
CC1=Nn2c(Cc3ccc(O)cc3)nnc2SC1C (centres unmarked) [Compound 536]	> 2000
Oc1ccc(Cc2nnc3ccc(N4CCc5ccccc5C4)nn23)cc1 [Compound 422]	100 to 2000
Clc1cccc(Nc2ccc3nnc(CNc4ccc5c(c4)OCCO5)n3n2)c1 [Compound 349]	> 2000
Clc1cccc(Nc2ccc3nnc(CNc4ccc5cc[nH]c5c4)n3n2)c1 [Compound 477]	> 2000
CC(=O)N1CCCC(Nc2ccc3nnc(Cc4ccc(O)cc4)n3n2)C1 (centres unmarked) [Compound 326]	> 2000
NC(=O)c1ccc(OCc2nnc3ccc(Nc4cccc(Cl)c4)nn23)cc1 [Compound 470]	100 to 2000
COc1ccc(Cc2nnc3ccc(Nc4cc(C)cc(C)c4)nn23)cc1 [Compound 297]	100 to 2000
Fc1ccc(Cl)cc1Nc1ccc2nnc(Cc3ccc4c(c3)OCO4)n2n1 [Compound 362]	< 100
Clc1ccc(OCc2nnc3ccc(Nc4cccc(Cl)c4)nn23)cc1 [Compound 380]	> 2000
CCN(CC)CC(C)Nc1ccc2nnc(Cc3ccc(O)cc3)n2n1 (centres unmarked) [Compound 311]	> 2000
C[C@@H](c1ccc(O)cc1)c1nnc2ccc(NC3CCCCC3)nn12 [Compound 419]	< 100
COCCC(=O)N[C@H]1CCCC[C@H]1Nc1ccc2nnc([C@@H](C)c3ccc(O)cc3)n2n1 [Compound 447]	100 to 2000
COc1cccc(NCc2nnc3ccc(Nc4cccc(Cl)c4)nn23)c1 [Compound 336]	100 to 2000
Clc1cccc(Nc2ccc3nnc(Cc4noc5ccccc45)n3n2)c1 [Compound 438]	> 2000
Clc1cccc(Nc2ccc3nnc(COc4ccc(Cl)nc4)n3n2)c1 [Compound 375]	> 2000
CS(=O)(=O)c1ccc(Cc2nnc3n2N=C(c2ccccc2)CS3)cc1 [Compound 528]	> 2000
NC(=O)c1ccc(Cc2nnc3ccc(Nc4cccc(Cl)c4)nn23)cc1 [Compound 494]	100 to 2000
C[C@H](c1ccc(O)cc1)c1nnc2ccc(Nc3cccc(Cl)c3)nn12 [Compound 319]	< 100

Same assay, conditions: coupled enzyme system, 200 μM ATP, 10 μM polyGluTyr, 80 nM c-Met, 30° C.; read-out: c-Met Ki

Compound	Ki [nM]
C[C@H](c1ccc(O)cc1)c1nnc2sc(Nc3cccc(F)c3)nn12 [Compound 106]	< 100
C[C@@H](c1ccc(OC(=O)[C@@H](C)N)cc1)c1nnc2sc(Nc3cccc(Cl)c3)nn12 [Compound 167]	< 100
COc1cc(Cc2nnc3sc(Nc4ccccc4OC)nn23)ccc1O [Compound 33]	> 2000
CC(=O)Nc1cccc(NCc2nnc3ccc(-c4ccccc4)nn23)c1 [Compound 210]	> 2000
Clc1cccc(Nc2ccc3nnc(Cc4ccc5c(c4)OCO5)n3n2)c1 [Compound 239]	< 100
CC(C)(C)c1cccc(Nc2ccc3nnc(Cc4ccc(O)cc4)n3n2)c1 [Compound 182]	< 100
OCc1cccc(Nc2ccc3nnc(Cc4ccc(O)c(Cl)c4)n3n2)c1 [Compound 261]	100 to 2000
Oc1ccc(Cc2nnc3ccc(N4CCCCC4)nn23)cc1 [Compound 177]	100 to 2000
COc1ccc(Nc2nn3c(Cc4ccc(O)c(Cl)c4)nnc3s2)cc1 [Compound 39]	100 to 2000
CC(Oc1ccc2cccnc2c1)c1nnc2sc(Nc3cccc(Cl)c3)nn12 (centres unmarked) [Compound 164]	> 2000
OCc1cccc(Nc2ccc3nnc(Cc4ccc5c(c4)OCO5)n3n2)c1 [Compound 263]	100 to 2000
CC(C)[C@H](C)Nc1ccc2nnc(Cc3ccc(O)cc3)n2n1 [Compound 193]	100 to 2000
COc1cccc(N2CCN(c3ccc4nnc(Cc5ccc(O)cc5)n4n3)CC2)c1 [Compound 194]	100 to 2000
CC(c1ccc(O)cc1)c1nnc2sc(Nc3ccc(Cl)cc3)nn12 (centres unmarked) [Compound 53]	< 100
O=C(Nc1nn2c(Cc3ccc(O)cc3)nnc2s1)c1ccccc1 [Compound 57]	> 2000
Cc1cc(C)cc(Nc2ccc3nnc(Cc4ccncc4)n3n2)c1 [Compound 249]	> 2000
C[C@@H](c1ccc(O)cc1)c1nnc2sc(Nc3cccc(F)c3)nn12 [Compound 105]	< 100
COC(=O)c1ccccc1Nc1nn2c(Cc3ccc(O)cc3)nnc2s1 [Compound 69]	> 2000
Oc1ccc(Cc2nnc3ccc(Nc4cccc(Cl)c4)nn23)cc1Cl [Compound 237]	< 100
C[C@@H](c1ccc(O)cc1)c1nnc2sc(Nc3cccc(Cl)c3)nn12 [Compound 116]	< 100
COc1cccc(Nc2ccc3nnc(Cc4ccc(O)c(Cl)c4)n3n2)c1 [Compound 241]	100 to 2000
COc1ccc(Cc2nnc3sc(C4CCCCN4)nn23)cc1 (centres unmarked) [Compound 24]	> 2000
c1coc(-c2nn3c(Cc4ccc5c(c4)OCO5)nnc3s2)c1 [Compound 48]	> 2000
O=C(Nc1ccc(F)cc1)Nc1nn2c(Cc3ccc(O)cc3)nnc2s1 [Compound 114]	> 2000

Compound	Ki [nM]
Oc1ccc(Cc2nnc3ccc(Nc4cc(Cl)cc(Cl)c4)nn23)cc1F [Compound 245]	< 100
Oc1ccc(Cc2nnc3sc(Nc4ccc(Cl)cc4)nn23)cc1F [Compound 54]	< 100
Clc1cccc(Nc2ccc3nnc(Cc4ccncc4)n3n2)c1 [Compound 240]	100 to 2000
Oc1ccc(Cc2nnc3ccc(Cl)nn23)cc1 [Compound 174]	100 to 2000
Oc1ccc(Cc2nnc3sc(Nc4ccc5nsnc5c4)nn23)cc1 [Compound 70]	> 2000
Oc1ccc(Cc2nnc3sc(Nc4cc(F)cc(F)c4)nn23)cc1F [Compound 131]	< 100
C[C@@H](c1ccc(OC(=O)[C@@H](C)N)cc1)c1nnc2sc(Nc3cccc(F)c3)nn12 [Compound 166]	< 100
Oc1ccc(Cc2nnc3ccc(N4CCC(CCc5ccccc5)C4)nn23)cc1 (centres unmarked) [Compound 205]	100 to 2000
Oc1ccc(Cc2nnc3ccc(Nc4cccc(C(F)(F)F)c4)nn23)cc1 [Compound 223]	< 100
CC(=O)Nc1ccc(NCc2nnc3ccc(-c4ccccc4)nn23)cc1 [Compound 209]	> 2000
CN(C)c1ccc(Nc2nn3c(Cc4ccc(O)cc4)nnc3s2)cc1 [Compound 74]	100 to 2000
COc1ccc(Cc2nnc3sc(-c4ccccc4)nn23)cc1 [Compound 3]	> 2000
COc1cccc(Nc2ccc3nnc(Cc4ccncc4)n3n2)c1 [Compound 244]	> 2000
Cc1ccc(F)cc1Nc1nn2c(Cc3ccc(O)cc3)nnc2s1 [Compound 75]	< 100
Oc1ccc(Cc2nnc3sc(NC4CC4)nn23)cc1 [Compound 19]	> 2000
CC(C)C[C@@H](CO)Nc1ccc2nnc(Cc3ccc(O)cc3)n2n1 [Compound 188]	100 to 2000
COc1cccc(Nc2nn3c(C(C)c4ccc(O)cc4)nnc3s2)c1 (centres unmarked) [Compound 37]	< 100
Oc1ccc(Cc2nnc3ccc(Nc4ccccc4)nn23)cc1 [Compound 178]	< 100
Oc1ccc(Cc2nnc3ccc(NCc4cccc(F)c4)nn23)cc1 [Compound 268]	100 to 2000
CC(c1ccc(O)cc1)c1nnc2sc(Nc3cccc(Cl)c3F)nn12 (centres unmarked) [Compound 132]	< 100
Oc1ccc(Cc2nnc3ccc(Nc4cc(F)cc(F)c4)nn23)cc1 [Compound 250]	< 100
OC[C@H](Cc1ccccc1)Nc1ccc2nnc(Cc3ccc(O)cc3)n2n1 [Compound 191]	> 2000
CCN1CCCC1CNc1ccc2nnc(Cc3ccc(O)cc3)n2n1 (centres unmarked) [Compound 197]	> 2000
Oc1ccc(Cc2nnc3sc(Nc4ccccn4)nn23)cc1 [Compound 10]	> 2000
